Among the data in paper PMC4657974, “Positive Allosteric Modulation of Kv Channels by Sevoflurane: Insights into the Structural Basis of Inhaled Anesthetic Action” (PLoS ONE, 2015) are IC50 and EC50 values, retold here.

Common to all, as to type: cell-based
Assay [1] has as its target T1, K-Shaw2 (Drosophila melanogaster, UniProt P17972).
T1 construct: gene Shaw; full-length channel, homotetramer, expressed in Xenopus oocytes from cRNA
T1 sequence (P17972 1-498): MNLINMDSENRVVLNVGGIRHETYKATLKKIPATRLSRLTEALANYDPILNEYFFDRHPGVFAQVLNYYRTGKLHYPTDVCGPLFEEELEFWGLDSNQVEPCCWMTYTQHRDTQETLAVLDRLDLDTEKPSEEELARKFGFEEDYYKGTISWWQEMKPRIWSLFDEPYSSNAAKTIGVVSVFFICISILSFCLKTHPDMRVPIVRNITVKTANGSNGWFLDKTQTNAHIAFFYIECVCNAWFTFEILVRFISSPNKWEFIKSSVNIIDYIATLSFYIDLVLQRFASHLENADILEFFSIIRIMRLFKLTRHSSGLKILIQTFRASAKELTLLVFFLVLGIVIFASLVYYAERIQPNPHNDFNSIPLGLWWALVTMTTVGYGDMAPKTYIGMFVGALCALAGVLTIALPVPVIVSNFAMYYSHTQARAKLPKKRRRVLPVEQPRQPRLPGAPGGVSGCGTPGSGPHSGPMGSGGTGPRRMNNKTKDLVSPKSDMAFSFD
Put plainly: two-electrode voltage clamp, Xenopus oocytes, Hill fit. Particulars: inhibition; pH 7.4; 21-23 °C; voltage not given; read-out: K 1; cited from earlier work. An excerpt:
two-electrode voltage clamp, Xenopus oocytes, Hill fit on K-Shaw2
(In two-electrode clamp one electrode senses voltage and the other passes current.)

In a further assay the target is T2, ΔT1-K-Shaw2 (Drosophila melanogaster, UniProt P17972, DEL2-155).
T2 construct: gene Shaw; T1 domain deleted (lacks residues 2-155), homotetramer, expressed in Xenopus oocytes
T2 sequence (P17972 with tags, fused parts or gaps DEL2-155): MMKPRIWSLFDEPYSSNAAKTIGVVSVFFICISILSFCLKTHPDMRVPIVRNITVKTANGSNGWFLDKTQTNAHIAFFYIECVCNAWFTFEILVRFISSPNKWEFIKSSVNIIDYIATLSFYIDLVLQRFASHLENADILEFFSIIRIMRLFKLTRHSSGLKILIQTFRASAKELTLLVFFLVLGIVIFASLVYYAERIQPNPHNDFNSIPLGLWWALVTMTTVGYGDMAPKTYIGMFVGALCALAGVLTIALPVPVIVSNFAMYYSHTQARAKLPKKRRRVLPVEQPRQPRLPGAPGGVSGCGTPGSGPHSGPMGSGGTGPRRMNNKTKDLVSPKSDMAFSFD
The assay is described as above. Particulars: read-out: K 1. From the text: two-electrode voltage clamp, Xenopus oocytes, Hill fit on ΔT1-K-Shaw2

Assay [2] has as its target T1, K-Shaw2. Put plainly: two-electrode voltage clamp, Xenopus oocytes, double Hill fit. Particulars: read-out: K 1. An excerpt: two-electrode voltage clamp, Xenopus oocytes, double Hill fit on K-Shaw2 | Solid line is the best-fit double Hill equation to the K-Shaw2 data

Each structure is given as a SMILES string.

In the case of `CCCCO` [n-butanol], the IC50 was 10100 µM on K-Shaw2 [1] and 16400 µM on ΔT1-K-Shaw2.
`FCOC(C(F)(F)F)C(F)(F)F` [sevoflurane]: the EC50 at K-Shaw2 [2] worked out at 80 µM.
As to `ClC(Cl)Cl` [chloroform], the IC50 at K-Shaw2 [1] was 700 µM.
In the case of `CC(C)c1cccc(C(C)C)c1O` [propofol], the IC50 on K-Shaw2 [1] is 60 µM.
For the compound `FC(F)OC(Cl)C(F)(F)F` (centres unmarked) [isoflurane], the IC50 at K-Shaw2 [1] was 1690 µM.
Turning to `FC(F)(F)C(Cl)Br` (centres unmarked) [halothane], the IC50 on K-Shaw2 [1] was 260 µM; at ΔT1-K-Shaw2, 380 µM.
